Experimental data published in patent publication US20140187505A1, “Cardiac Glycosides to Treat Cystic Fibrosis and Other IL-8 Dependent Disorders” (priority 2002, published 2014).
Values joined by “and” are separate entries in the source; they are usually repeats but may differ in a detail not shown here. Equal values may be shown once. Read-outs that look alike come from different tables or passages of the source.

Assays:
[1] = tested on: rat PAIII castration resistant prostate cancer cells; assay: EMT mRNA expression in cultured PAIII cells (FPKM); settings: 6 nM Digitoxin, 24 hours
[2] = tested on: HeLa cervical cancer cells; assay: cells; settings: Homo sapiens, 24 h, read-out: IC50 dose for cell death
[3] = tested on: PAIII cancer cells; parameters: species or system Lobund-Wistar rats; settings: rat, in vivo
[4] = tested on: TNFa/NFkB signaling pathway; assay: Reverse Phase Protein Microarrays of TNFa/NFkB pathway phosphorylation in IB3-1 cells; type: cell-based, human; settings: IC-90 concentrations
Excerpt: Previously published data have implicated a dysfunctional TNFa/NFkB signaling pathway as responsible for the pro-inflammatory phenotype of the CF lung (Eidelman et al, 2001a). […] IC-90 means a concentration of drug that blocks 90% of IL-8 secretion from the IB3-1 cells. […] (See FIG. 1).

[5] = octanol/water (20 mM TRIS-HCl, pH 7.4), cited from earlier work
[6] = tested on: IL-6 and CINC1 (rat IL-8 equivalent); assay: Serum IL-6 and CINC1 in rats bearing PAIII tumors; type: in vivo; settings: digitoxin 0.03 mg/kg daily for 30 days, serum day 30
[7] = for 70 kg man, cited from earlier work
[8] = tested on: collagen induced arthritis (CIA) mice; settings: mouse, in vivo
[9] = tested on: Human castration-resistant prostate cancer PC3 cells; assay: EMT protein expression in PC3 cells (Western blot); type: cell-based; settings: 24 hours, vehicle 100%
[10] = tested on: rat PAIII castration-resistant prostate cancer cells; assay: MicroRNA expression in cultured PAIII cells (TaqMan, DDCt); type: cell-based; settings: 6 nM Digitoxin, 24 hours
[11] = tested on: PAIII Castration Resistant Prostate Cancer cells; parameters: species or system Lobund-Wistar rats; settings: rat, in vivo
[12] = tested on: rat lungs infected with influenza; assay: Cytokines and chemokines in lungs of influenza-infected cotton rats; type: in vivo; settings: 3, 10 or 30 microgram/kg ip daily, lung harvested day 4
Experimental: Fifteen standard cotton rats were divided into five groups of three each. […] The rats in the treatment groups were pre-treated on the preceding day with either 3, 10, or 30 micro-g/kg intraperitoneally. […] Each rat was then treated on Day 1 with 100 microliters of Wuhan Strain influenza virus (titer-10^8 TC-IC 50/ml) (IC is […]) by intra-nasal administration to induce lung inflammation.
The rats were sacrificed on the last day 4 hrs after treatment.
Pieces of lung was harvested on day 4 and homogenized in PBS by glass-on-glass homogenizer in 1 gram/ml. Samples are frozen on dry ice, and then transferred to −80° C. for analysis. […] Rodents lack IL-8 and instead have GRO/KC and MIP-2. […] GM-CSF was undetectable in the tissue under any conditions.

[13] = mobile phase: methanol/water 30:70; cited from earlier work
[14] = tested on: guinea-pig heart Na^+-K^+-ATPase; settings: cited from earlier work
[15] = tested on: IL-8 secretion from cystic fibrosis lung epithelial IB3-1 cells; settings: Homo sapiens, IB3-1, 48 h
[16] = tested on: Cystic Fibrosis IB-3 Lung Epithelial Cells; assay: Secretion of proinflammatory mediators from IB-3 cells (ELISA, 24 hours); type: cell-based; settings: Homo sapiens, Epithelial cell
[17] = tested on: HeLa cervical cancer cells; settings: human
[18] = eluent acetonitrile/water 45:55; cited from earlier work
[19] = tested on: clear cell renal carcinoma metastatic to the brain and spinal cord; settings: human, in vivo

Compound: C[C@H]1O[C@@H](O[C@H]2[C@@H](O)C[C@H](O[C@H]3[C@@H](O)C[C@H](O[C@H]4CC[C@@]5(C)[C@H](CC[C@@H]6[C@@H]5CC[C@]5(C)[C@@H](C7=CC(=O)OC7)CC[C@]65O)C4)O[C@@H]3C)O[C@@H]2C)C[C@H](O)[C@@H]1O [digitoxin]
- FOXP3 mRNA % change [1]: −30%
- Hepatocyte Growth Factor mRNA % change [1]: −50%
- Igf2r mRNA % change [1]: −40%
- Vimentin mRNA % change [1]: −10%
- Zeb2 mRNA % change [1]: −30%
- IC50 [2]: ~200 nM
- Diameter of metastatic foci, mm, (median) [3]: 1.76 mm
- Number of pleural metastatic foci (median) [3]: 122
- Constitutive phosphorylation of IkBalpha and NFkB, p65 [4]: significantly suppressed
- Phosphorylation of IKKalpha [4]: modestly suppressed
- P (partition coefficient in octanol/water system) [5]: 670 and 680
- P (partition coefficient in octanol/water system) ([5]; listed as Digitoxin): 670.0 ± 105.0
- Serum Interleukin-6 (IL-6) ([6]; control 47.9 ± 14.1): 37.0 ± 16.9 pg/mL
- Serum CINC1/KC (rat IL-8 equivalent) ([6]; control 60.32 ± 20.6): 47.9 ± 14.4 pg/mL
- Human toxicity limit [7]: 3036 nmol
- Human toxicity limit, Nmol/L = nM [7]: 45.4 nM
- Human toxicity limit ([7]; ouabain value is lethal dose): >2.5 mg
- Incidence of CIA (mice that developed symptoms) [8]: 50%
- Inflammatory focus (pannus-like) in metatarsal-phalangeal joints, histopathology [8]: absent
- Mean paw thickness [8]: decreased
- Severity of CIA (mean visual score) [8]: significant reduction
- E-Cadherin % Band Intensity ([9]; Digitoxin 10 nM): 0%,
- SNAI1 % Band Intensity ([9]; Digitoxin 10 nM): 0%,
- Vimentin % Band Intensity ([9]; Digitoxin 10 nM): 0%,
- E-Cadherin % Band Intensity ([9]; Digitoxin 25 nM): 0%,
- SNAI1 % Band Intensity ([9]; Digitoxin 25 nM): 0%,
- Vimentin % Band Intensity ([9]; Digitoxin 25 nM): 0%,
- miR467b DDCt, Digitoxin - Vehicle [10]: 20.10
- miR-122 DDCt, Digitoxin - Vehicle [10]: 11.005
- miR-291a-3p DDCt, Digitoxin - Vehicle [10]: 19.13
- miR-347 DDCt, Digitoxin - Vehicle [10]: 4.34
- miR-376a DDCt, Digitoxin - Vehicle [10]: −32.75(↑)
- miR-380-3p DDCt, Digitoxin - Vehicle [10]: 16.57
- miR-411 DDCt, Digitoxin - Vehicle [10]: 4.61
- miR-667 DDCt, Digitoxin - Vehicle [10]: 7.01
- miR-670 DDCt, Digitoxin - Vehicle [10]: −12.11(↑)
- miR-879 DDCt, Digitoxin - Vehicle [10]: 11.31
- Diameter of metastasis, mm (median) [11]: 0.87 mm
- Number of Pleural Metastases (median) [11]: 16
- Weight of Primary Tumor, gm (median) [11]: 19.6 gm
- GRO/KC in lung [12]: significant reductions
- IFNγ in lung [12]: significant reductions
- IL-13 in lung [12]: No significant changes
- MCP-1 in lung [12]: significant reductions
- MIP-2 in lung [12]: significant reductions
- TGFβ in lung [12]: No significant changes
- TNFa in lung [12]: significant reductions
- RM values (lipophilicity, reversed-phase thin layer chromatography) [13]: 1.37
- ID50 [14]: 0.31 ± 0.03 ×10^−4 mol l^−1
- IC50 ([15]; read-out: IC50 nmol/L in cells): 0.9 nmol/L
- IC50 ([15]; read-out: IC50 (K50) for spontaneous IL-8 secretion): ~0.9 nmol/L
- activity at 0.01 µM ([16]; read-out: ICAM1 secretion, % of Control): 19%
- activity at 0.03 µM ([16]; read-out: ICAM1 secretion, % of control): 30%
- activity at 0.01 µM ([16]; read-out: IFN-gamma secretion, % of Control): 100%
- activity at 0.03 µM ([16]; read-out: IFN-gamma secretion, % of control): 35%
- activity at 0.01 µM ([16]; read-out: IL-1-beta secretion, % of Control): 50%
- activity at 0.03 µM ([16]; read-out: IL-1-beta secretion, % of control): 50%
- activity at 0.01 µM ([16]; read-out: IL-6 secretion, % of Control): 3%
- activity at 0.03 µM ([16]; read-out: IL-6 secretion, % of control): 0%
- activity at 0.01 µM ([16]; read-out: IL-8 secretion, % of Control): 2%
- activity at 0.03 µM ([16]; read-out: IL-8 secretion, % of control): 0%
- activity at 0.01 µM ([16]; read-out: IP-10 secretion, % of Control): 100%
- activity at 0.03 µM ([16]; read-out: IP-10 secretion, % of control): 100%
- activity at 0.01 µM ([16]; read-out: TNFalpha secretion, % of Control): 5%
- activity at 0.03 µM ([16]; read-out: TNFalpha secretion, % of control): 0%
- Threshold concentration for an increase in cell death [17]: 70 to 100 nM
- K retentions for reversed-phase high pressure liquid chromatography [18]: 3.34
- Clinical outcome of one cancer patient [19]: positive result
